Measurements as given in publication PMC5817083, “Oligopeptide Targeting Sortase A as Potential Anti-infective Therapy for Staphylococcus aureus” (Frontiers in Microbiology, 2018).
“Also recorded” adds a separate entry of the source. Marks after values point to notes of the source that are not given here.

Experiments:
SrtAWT = molecular target: T1, SrtAWT (Staphylococcus aureus, UniProt Q2FV99); experiment: Fluorescence spectroscopy quenching binding constant, SrtAWT
T1 construct: GST (cleaved yes); made in house; host or cells: Escherichia coli BL21 (DE3)
Source text: (§1) In this study, the fluorescence quenching method was used to measure the binding constants (KA) of ligands to proteins. A 280-nm excitation wavelength with 5-nm band pass and a 345-nm emission wavelength with 10-nm band pass were used for the measurements. Details of the measurement procedures have been described previously ([Bandyopadhyay et al., 2002]; [Jurasekova et al., 2009]).

[1] = tested on: S. aureus invasion into J774 cells; experiment: Invasion assay in J774 cells; format: cell-based, Staphylococcus aureus; conditions: 25 μM oligopeptide, infection 1 h, CFU of lysed cells
Procedure: J774 cells were adjusted to 4 × 10^5 per glass slide in 24-well plates in Dulbecco’s […] essential medium (DMEM) supplemented with 10% fetal bovine serum (FBS) and cultured in an incubator at 5% CO2 and 37°C overnight. An overnight bacterial culture was inoculated in fresh TSB (1:100, OD600 nm ≈ 0.2) with the indicated concentrations of the oligopeptide and incubated until the OD600 nm reached 1.0. Then, the bacteria were resuspended in DMEM containing 10% FBS at a concentration of 1 × 10^8 CFU/mL, and 1 mL of the resuspension was added to each well for infection at 37°C for 1 h. Invasion was terminated by incubation with 300 μg/mL gentamicin for 30 min. After three washes with PBS, coverslips were placed in 0.2% Triton X-100 with vigorous vortexing, and the diluted lysates were plated onto TSB agar plates to enumerate the number of bacteria associated with each sample.

SrtAR197A [2] = molecular target: T2, SrtAR197A (Staphylococcus aureus, UniProt Q2FV99, R197A); experiment: Fluorescence spectroscopy quenching binding constant, SrtAR197A
T2 construct: GST (cleaved yes); made in house; host or cells: Escherichia coli BL21 (DE3)
Source text: as §1

SrtAR197A [3] = molecular target: T2, SrtAR197A; experiment: SrtA activity inhibition assay, mutant SrtAR197A; format: biochemical; conditions: Figure 5C
Procedure: (§2) The procedures followed for expression and purification of the mutant proteins (SrtAN114A, SrtAC184A, and SrtAR197A) were identical to those followed for the wild-type protein (SrtAΔN59).
(§3) Site-directed mutagenesis for SrtAN114A, SrtAC184A, and SrtAR197A was conducted using a recombinant vector encoding SrtAΔN59 with a QuickChange Site-Directed Mutagenesis Kit (Stratagene, La Jolla, CA, United States). The primer pairs for these three mutations were as follows: N114A forward, 5′-[…]-3′; N114A reverse, 5′-[…]-3′; C184A forward, 5′-[…]-3′; C184A reverse, 5′-[…]-3′; R197A forward, 5′-[…]-3′; and R197A reverse, 5′-[…]-3′.
(§4) The inhibitory effect of the oligopeptide against SrtA and its mutants activity was determined as previously described in 96-well black plates (PerkinElmer, Boston, MA, United States) ([Wang et al., 2015c]). Briefly, 100 μL of purified SrtA ([…]) was preincubated with 100 μL of increasing concentrations of the oligopeptide (3.125–25 μM) in reaction buffer at 37°C for 20 min. The model fluorescent peptide substrate Dabcyl-[…]-Edans (GL Biochem, Shanghai, China) (final concentration of 10 μM) was added to the reaction system, followed by incubation at 37°C for 1 h. Fluorescence intensity was measured at […] wavelengths of 350 and 520 nm, respectively. The experiments were repeated three times independently for each sample.

[4] = tested on: S. aureus-induced mastitis; experiment: Mouse mastitis model of S. aureus infection; format: in vivo, BALB/c mice; conditions: for protection against S. aureus-induced mastitis: mouse model
Procedure: BALB/c mice (from the Experimental Animal Center of Jilin University) were obtained and housed under specific pathogen-free conditions. All animal studies were approved by and conducted in accordance with the guidelines of the Animal Welfare and Research Ethics Committee of Jilin University. An overnight bacterial culture was inoculated in fresh TSB broth (1:100, OD600 nm ≈ 0.2) and incubated until the OD600 nm reached 0.8. Cells were harvested by centrifugation at 3,000 × g for 10 min, washed three times with PBS, and resuspended in PBS to a concentration of 1 × 10^9 CFU/mL for the mastitis infection experiment.
For establishment of a mastitis model of infection, lactating BALB/c mice, 10–12 weeks of age and weighing 30–32 g, were anesthetized using sodium pentobarbital and infected by injecting the canal glands with 50 μL of staphylococcal suspension per breast. The infected mice were administered 50 mg/kg of the oligopeptide subcutaneously at the time of infection and then at 12-h intervals. The control mice received an equal volume of PBS at the same time points. To evaluate the pathological correlates of mastitis, mammary gland tissues isolated from sacrificed mice at 48 h post-infection were fixed in 4% paraformaldehyde, stained with hematoxylin and eosin, and visualized by light microscopy. Furthermore, additional mammary gland tissues from the mice sacrificed at 48 h post-infection were homogenized in PBS containing 2% Triton X-100, after which they were appropriately diluted and inoculated onto TSB agar plates for assessment of the bacterial burden. The levels of the inflammatory cytokines IL-1β, IL-6, and TNF-α in the supernatants were measured using ELISA kits.

S. aureus USA 300 = experiment: Growth curve experiment (OD 600 nm); format: cell-based, Staphylococcus aureus; conditions: USA 300 in TSB, oligopeptide 3.125–25 μM
Procedure: (§5) The broth microdilution method was used to determine the minimum inhibitory concentration (MIC) of the oligopeptide against the MRSA strain USA 300 according to the NCCLS guideline M31-A2. For the growth curve experiment, an overnight bacterial culture was inoculated in fresh TSB (1:100) with the indicated concentrations of the oligopeptide, and the optical density (OD) at 600 nm was measured for each sample at 1-h intervals.

SrtAN114A [5] = molecular target: T3, SrtAN114A (Staphylococcus aureus, UniProt Q2FV99, N114A); experiment: Fluorescence spectroscopy quenching binding constant, SrtAN114A
T3 construct: GST (cleaved yes); made in house; host or cells: Escherichia coli BL21 (DE3)
Source text: as §1

SrtAN114A [6] = molecular target: T3, SrtAN114A; experiment: SrtA activity inhibition assay, mutant SrtAN114A; format: biochemical; conditions: Figure 5C
Procedure: as §2, §3, §4

MRSA strain USA 300 = experiment: Broth microdilution MIC; format: cell-based, Staphylococcus aureus; conditions: for anti-S. aureus (bacteriostatic) activity: at concentrations that inhibit SrtA activity
Procedure: as §5

SrtAC184A [7] = molecular target: T4, SrtAC184A (Staphylococcus aureus, UniProt Q2FV99, C184A); experiment: SrtA activity inhibition assay, mutant SrtAC184A; format: biochemical; conditions: Figure 5C
T4 construct: GST (cleaved yes); made in house; host or cells: Escherichia coli BL21 (DE3)
Procedure: as §2, §3, §4

[8] = tested on: S. aureus USA 300 adherence to bovine fibronectin; experiment: Fibronectin-binding assay; format: cell-based, Staphylococcus aureus; conditions: USA 300 treated with oligopeptide, crystal violet OD570 nm
Procedure: Ninety-six-well flat-bottom polystyrene plates were coated with 100 μL of 2 μg/mL fibronectin in PBS (fibronectin from bovine plasma; Sigma–Aldrich, St. Louis, MO, United States) per well and incubated at 4°C overnight. Each well was washed three times with PBS and blocked with 5% BSA in PBS at 37°C for 2 h. An overnight bacterial culture was inoculated in fresh TSB (1:100, OD600 nm ≈ 0.2) with the indicated concentrations of the oligopeptide and incubated until the OD600 nm reached 0.5. Then, the cells were centrifuged at 5000 × g for 10 min and resuspended in PBS to an OD600 nm of 1.0. One hundred microliters of bacterial suspension were added to each fibronectin-coated plate well as described above, and the plates were incubated at 37°C for 2 h. After removal of the cell suspension, 25% (v/v) formaldehyde was added to fix S. aureus. Then, the bacteria attached to fibronectin were stained with 100 μL of 0.4% crystal violet dye for 20 min at 37°C after being washed once with PBS. Following removal of the supernatant, adherence was quantified by measuring the OD570 nm for each well. USA 300 without the oligopeptide was used as a positive control, and PBS was used as a negative control.

SrtAC184A [9] = molecular target: T4, SrtAC184A; experiment: Fluorescence spectroscopy quenching binding constant, SrtAC184A
Source text: as §1

[10] = tested on: surface protein A display on S. aureus; experiment: Immunofluorescence assay of surface protein A; format: cell-based, Staphylococcus aureus; conditions: S. aureus cultured with oligopeptide 37°C 2.5 h, confocal microscopy
Procedure: Detection of surface protein A by immunofluorescence analysis was performed as described previously ([Chen et al., 2014]). Briefly, S. aureus were cultured in TSB with or without the oligopeptide at 37°C for 2.5 h, pelleted by centrifugation (3,000 × g, 10 min), washed three times with PBS, blocked with 2% BSA for 1 h at 37°C, stained with fluorescein isothiocyanate (FITC)-labeled goat anti-rabbit IgG for 2 h at 37°C, and observed under a laser scanning confocal microscope (Olympus, Tokyo, Japan).

SrtA (SrtAΔN59) = molecular target: T5, SrtA (SrtAΔN59) (Staphylococcus aureus, UniProt Q2FV99); experiment: SrtA activity inhibition assay (fluorescent substrate Dabcyl-[…]-Edans); format: biochemical; conditions: purified SrtA preincubated with oligopeptide 3.125–25 μM, 37°C 20 min; substrate 10 μM, 1 h
T5 construct: GST (cleaved yes); made in house; host or cells: Escherichia coli BL21 (DE3)
Procedure: An Escherichia coli BL21 (DE3) strain harboring a recombinant vector encoding SrtA∆N59 was used, as described previously ([Wang et al., 2015c]). Cells were cultured overnight at 16°C with 1 mM isopropyl-β-D-thiogalactopyranoside (IPTG, Invitrogen, Carlsbad, CA, United States) in TSB containing ampicillin to induce SrtA expression until the OD600 reached 0.6 ∼ 0.8. Then, the cells were harvested by centrifugation at 5,500 × g for 10 min, resuspended in reaction buffer (50 mM Tris-HCl, 5 mM CaCl2, and 150 mM NaCl, pH 7.5) and lysed by sonication. […] The bound GST-tagged proteins were incubated with Precision Protease at 4°C overnight prior to elution with reaction buffer. Purified SrtA proteins were concentrated to […] via centrifugal filtration (Millipore, Bedford, MA, United States) and subsequently analyzed by SDS-PAGE.
The inhibitory effect of the oligopeptide against SrtA and its mutants activity was determined as previously described in 96-well black plates (PerkinElmer, Boston, MA, United States) ([Wang et al., 2015c]). Briefly, 100 μL of purified SrtA ([…]) was preincubated with 100 μL of increasing concentrations of the oligopeptide (3.125–25 μM) in reaction buffer at 37°C for 20 min. […] Fluorescence intensity was measured at […] wavelengths of 350 and 520 nm, respectively. […]

| Substance | binding constant KA (SrtAWT) | invasion of S. aureus into J774 cells [1] | binding constant KA (SrtAR197A [2]) | sensitivity of SrtAR197A to oligopeptide-induced inhibition compared to wild-type SrtA (SrtAR197A [3]) | inflammatory responses and pathological changes of mammary gland tissues ([4]; lactating BALB/c mice, 50 mg/kg at infection then 12-h intervals, 48 h post-infection, vs PBS, listed as oligopeptide, 50 mg/kg) | levels of cytokines IL-1β, IL-6 and TNF-α in mammary gland tissues ([4]; lactating BALB/c mice, 50 mg/kg, 48 h post-infection, ELISA) | bacterial burden in mammary gland tissues ([4]; lactating BALB/c mice, 50 mg/kg, 48 h post-infection, vs PBS-treated control) | protection against S. aureus-induced mastitis [4] | protection against S. aureus-induced mastitis ([4]; listed as oligopeptide) | growth of S. aureus (S. aureus USA 300) | binding constant KA (SrtAN114A [5]) | sensitivity of SrtAN114A to oligopeptide-induced inhibition compared to wild-type SrtA (SrtAN114A [6]) | MIC (MRSA strain USA 300; MRSA USA 300, broth microdilution) | anti-S. aureus (bacteriostatic) activity (MRSA strain USA 300) | anti-S. aureus (bacteriostatic) activity (MRSA strain USA 300; listed as oligopeptide) | sensitivity of SrtAC184A to oligopeptide-induced inhibition compared to wild-type SrtA (SrtAC184A [7]) | adherence to fibronectin [8] | binding constant KA (SrtAC184A [9]) | display (anchoring) of surface protein A, binding of FITC-conjugated IgG [10] | IC50 (SrtA (SrtAΔN59)) |
| --- | --- | --- | --- | --- | --- | --- | --- | --- | --- | --- | --- | --- | --- | --- | --- | --- | --- | --- | --- | --- |
| LPRDA | 6.6 ± 1.3 (1 × 10^4) L⋅mol^-1 | significant anti-invasive activity | 5.0 ± 1.4 (1 × 10^4) L⋅mol^-1 | significantly decreased | effectively alleviated; also recorded: Significant alleviation; also recorded: remarkably alleviated | significantly reduced | significant decrease | conferred effective protection | provided protection | not visibly affected | 4.2 ± 1.1 (1 × 10^4) L⋅mol^-1 | significantly decreased | greater than 200 μM | without anti-S. aureus activity | no anti-Staphylococcus aureus activity; also recorded: no bacteriostatic activity | significantly decreased | decreased adherence | 5.1 ± 1.2 (1 × 10^4) L⋅mol^-1 | significantly hindered the binding of FITC-conjugated IgG; also recorded: decreased | – |
| LPRDA (PEG2000-LPRDA-NH2) | – | – | – | – | – | – | – | – | – | – | – | – | – | – | – | – | – | – | – | 10.6 µM |
